These results are taken from ChEMBL document CHEMBL2034869, “Mapping pilicide anti-virulence effect in Escherichia coli, a comprehensive structure-activity study” (Bioorg Med Chem, 2012).

The EC50 is the concentration giving half of the maximal effect.

The subject of the assay is Escherichia coli. Put plainly: Inhibition of type-1 pili-dependent biofilm formation in Escherichia coli […]. Type of assay: functional, organism-based.
Where [1] appears, read: Escherichia coli, UT189, read-out: EC50.

As to `COc1c(Cc2ccc3c(c2)OCO3)cc(=O)n2c1SC[C@H]2C(=O)O`, the EC50 result is “Not Active”.

On to `Cn1cc(-c2c(COc3cccc4ccccc34)c(CO)c(=O)n3c2SC[C@H]3C(=O)O)c2ccccc21`, for which the EC50 under setting [1] worked out at 16 µM.

Take `Cc1cccc(-c2sc3c(-c4cn(C)c5ccccc45)c(COc4cccc5ccccc45)cc(=O)n3c2C(=O)O)c1`: the EC50 under setting [1] was 86 µM.

Take `O=C(O)[C@@H]1CSc2c(-c3cccs3)c(Cc3cccc4ccccc34)c(CN3CCOCC3)c(=O)n21`: the EC50 under setting [1] turned out to be 88 µM.

As to `Cc1cccc(-c2sc3c(-c4cn(C)c5ccccc45)c(COc4cccc5ccccc45)c(CN4CCOCC4)c(=O)n3c2C(=O)O)c1`, the EC50 under setting [1] is 5 µM.

Consider `Cc1cccc(CCc2cc(=O)n3c(c2-c2c[nH]c4ccccc24)SC[C@H]3C(=O)O)c1`, for which, under setting [1], the EC50 was determined as 74 µM.

With `Cc1cccc(OCc2cc(=O)n3c(c2-c2cccnc2)SC[C@H]3C(=O)[O-])c1C.[Li+]`, the EC50 result was “Not Active”.

Turning to `COc1ccc2c(Cc3cc(=O)n4c(c3C3CC3)SC[C@H]4C(=O)O)cc(=O)oc2c1`, the concentration for a half-maximal effect (EC50) result was “Not Active”.

For `CC(C)c1c(Cc2cccc3ccccc23)cc(=O)n2c1SC[C@H]2C(=O)O`, the half-maximal effective concentration (EC50) under setting [1] is 100 µM.

Regarding `CO[C@H]1Sc2c(-c3cn(C)c4ccccc34)c(COc3cccc4ccccc34)cc(=O)n2[C@@H]1C(=O)O`, the EC50 under setting [1] amounted to 2.5 µM.

As to `O=C(O)[C@@H]1CSc2c(-c3ccc4c(c3)OCO4)c(COc3cccc4ccccc34)cc(=O)n21`, the EC50 under setting [1] amounted to 21 µM.

Turning to `O=C(O)[C@@H]1CSc2c(-c3cccs3)c(Cc3cccc4ccccc34)c(CO)c(=O)n21`, the EC50 under setting [1] is 250 µM.

Regarding `Cn1cc(-c2c(COc3cccc4ccccc34)cc(=O)n3c2SC[C@H]3C(=O)NS(C)(=O)=O)c2ccccc21`, the EC50 under setting [1] was 9 µM.

Take `Cn1cc(-c2c(COc3cccc4ccccc34)cc(=O)n3c2S[C@H](c2ccccc2)[C@H]3C(=O)O)c2ccccc21`: the EC50 under setting [1] worked out at 1 µM.

For `O=C(O)[C@@H]1CSc2c(-c3cccc(C(F)(F)F)c3)c(Cc3c4ccccc4cc4ccccc34)cc(=O)n21`, under setting [1], the EC50 was found to be 3 µM.

On to `Cc1cccc(-c2sc3c(-c4ccc5c(c4)OCO5)c(COc4cccc5ccccc45)cc(=O)n3c2C(=O)O)c1`, for which, under setting [1], the half-maximal effective concentration (EC50) was found to be 20 µM.

As to `O=C(O)[C@@H]1CSc2c(-c3ccc4c(c3)OCO4)c(Cc3csc4ccccc34)cc(=O)n21`, under setting [1], the 50% effective concentration (EC50) turned out to be 67 µM.

`Cc1cccc(CCc2cc(=O)n3c(c2C(C)C)SC[C@H]3C(=O)O)c1`: under setting [1], the EC50 stood at 100 µM.

Take `O=C(O)[C@@H]1CSc2c(-c3ccccc3)c(Cc3cccc4ccccc34)cc(=O)n21`: under setting [1], the 50% effective concentration (EC50) was 40 µM.

For the compound `O=C(O)[C@@H]1CSc2c(-c3ccc4c(c3)OCO4)c(COc3cccc4ccccc34)c(CN3CCOCC3)c(=O)n21`, under setting [1], the EC50 worked out at 32 µM.

`O=C([O-])[C@@H]1CSc2c(C3CC3)c(Cn3ccc4ccccc43)cc(=O)n21.[Li+]`: the EC50 entry was “Not Active”.

Take `O=C(O)[C@@H]1[C@@H](c2ccccc2)Sc2c(-c3cccs3)c(Cc3cccc4ccccc34)cc(=O)n21`: the concentration giving a half-maximal response (EC50) under setting [1] was 0.4 µM.

Regarding `O=C(O)[C@@H]1CSc2c(-c3cccc(C(F)(F)F)c3)c(Cc3cccc(COc4cccc5ccccc45)c3)cc(=O)n21`, the EC50 under setting [1] was 1.9 µM.

In the case of `O=C(O)[C@@H]1COc2c(-c3cccs3)c(Cc3cccc4ccccc34)cc(=O)n21`, the EC50 under setting [1] is 117 µM.

As for `O=C(O)[C@@H]1CSc2c(-c3c[nH]c4ccccc34)c(Cc3ccc4c(c3)OCO4)cc(=O)n21`, the EC50 under setting [1] turned out to be 39 µM.

`O=C(O)[C@@H]1CSc2c(-c3c[nH]c4ccccc34)c(COc3cccc4ccccc34)cc(=O)n21`: the EC50 under setting [1] was 12 µM.

For the compound `CO[C@H]1Sc2c(-c3cccs3)c(Cc3cccc4ccccc34)cc(=O)n2[C@@H]1C(=O)O`, the half-maximal effective concentration (EC50) under setting [1] came to 92 µM.

Take `O=C(O)[C@@H]1[C@@H](c2ccccc2)Sc2c(-c3ccc4c(c3)OCO4)c(COc3cccc4ccccc34)cc(=O)n21`: under setting [1], the half-maximal effective concentration (EC50) was 1.2 µM.

`Cn1cc(-c2c(COc3cccc4ccccc34)cc(=O)n3c2OC[C@H]3C(=O)O)c2ccccc21`: under setting [1], the EC50 was 18 µM.

As for `O=C([O-])[C@@H]1CSc2c(-c3cccnc3)c(Cc3ccc4c(c3)OCO4)cc(=O)n21.[Li+]`, the EC50 entry is on record as “Not Active”.

With `Cc1cccc(-c2sc3c(-c4ccc5c(c4)OCO5)c(COc4cccc5ccccc45)c(CN4CCOCC4)c(=O)n3c2C(=O)O)c1`, under setting [1], the half-maximal effective concentration (EC50) worked out at 5 µM.

In the case of `Cn1cc(-c2c(COc3cccc(Oc4ccccc4)c3)cc(=O)n3c2SC[C@H]3C(=O)O)c2ccccc21`, the half-maximal effective concentration (EC50) under setting [1] was 2.1 µM.

For `O=C(O)[C@@H]1CSc2c(-c3cccc(C(F)(F)F)c3)c(COc3cccc(Oc4ccccc4)c3)cc(=O)n21`, under setting [1], the EC50 was determined as 4.3 µM.

For `COc1c(Cc2csc3ccccc23)cc(=O)n2c1SC[C@H]2C(=O)[O-].[Li+]`, the 50% effective concentration (EC50) result is “Not Active”.

For the compound `O=C(O)[C@@H]1CSc2c(-c3cccs3)c(COc3cccc4ccccc34)cc(=O)n21`, the half-maximal effective concentration (EC50) under setting [1] is 14 µM.

In the case of `Cc1cccc(CCc2cc(=O)n3c(c2-c2ccccc2)SC[C@H]3C(=O)O)c1`, the concentration for a half-maximal effect (EC50) under setting [1] stood at 40 µM.

With `O=C(O)[C@@H]1CSc2c(C3CC3)c(COc3cccc(Oc4ccccc4)c3)cc(=O)n21`, the 50% effective concentration (EC50) under setting [1] came out at 39 µM.

Turning to `Cn1cc(-c2c(Cc3cccc(COc4cccc5ccccc45)c3)cc(=O)n3c2SC[C@H]3C(=O)O)c2ccccc21`, the EC50 under setting [1] is 1.1 µM.

Regarding `COc1ccc2c(Cc3cc(=O)n4c(c3-c3ccccc3)SC[C@H]4C(=O)O)cc(=O)oc2c1`, the 50% effective concentration (EC50) result is reported as “Not Active”.

Regarding `O=C(O)[C@@H]1CSc2c(C3CC3)c(Cc3cccc4ccccc34)cc(=O)n21`, the EC50 under setting [1] was 250 µM.

For `O=C([O-])[C@@H]1CSc2c(C3CC3)c(Cc3csc4ccccc34)cc(=O)n21.[Li+]`, the EC50 entry is on record as “Not Active”.

As to `CO[C@H]1Sc2c(-c3ccc4c(c3)OCO4)c(COc3cccc4ccccc34)cc(=O)n2[C@@H]1C(=O)O`, the EC50 under setting [1] was 30 µM.

Turning to `O=C(O)[C@@H]1COc2c(-c3ccc4c(c3)OCO4)c(COc3cccc4ccccc34)cc(=O)n21`, the concentration giving a half-maximal response (EC50) under setting [1] worked out at 19 µM.

Regarding `COc1ccc2c(Cc3cc(=O)n4c(c3-c3cccs3)SC[C@H]4C(=O)O)cc(=O)oc2c1`, the 50% effective concentration (EC50) entry is given as “Not Active”.

In the case of `COc1c(Cc2cccc3ccccc23)cc(=O)n2c1SC[C@H]2C(=O)[O-].[Li+]`, the concentration for a half-maximal effect (EC50) result was “Not Active”.

Take `O=C(O)[C@@H]1CSc2c(C3CC3)c(Cc3cccc(COc4cccc5ccccc45)c3)cc(=O)n21`: the EC50 under setting [1] came out at 1.4 µM.

Take `O=C(O)[C@@H]1CSc2c(-c3cccs3)c(Cc3cccc4ccccc34)cc(=O)n21`: the half-maximal effective concentration (EC50) under setting [1] was 39 µM.

Regarding `O=C(O)[C@@H]1CSc2c(-c3c[nH]c4ccccc34)c(Cc3cccc4ccccc34)cc(=O)n21`, the EC50 under setting [1] worked out at 31 µM.

Consider `O=C(O)[C@@H]1CSc2c(-c3ccc4c(c3)OCO4)c(COc3cccc4ccccc34)c(CO)c(=O)n21`, for which the EC50 under setting [1] stood at 30 µM.

As for `Cc1cccc(OCc2cc(=O)n3c(c2-c2ccccc2)SC[C@H]3C(=O)O)c1C`, the EC50 under setting [1] amounted to 36 µM.

On to `Cn1cc(-c2c(COc3cccc4ccccc34)cc(=O)n3c2SC[C@H]3C(=O)O)c2ccccc21`, for which the concentration giving a half-maximal response (EC50) under setting [1] was 10 µM.

In the case of `Cc1cccc(OCc2cc(=O)n3c(c2-c2ccc4c(c2)OCO4)SC[C@H]3C(=O)O)c1C`, the concentration for a half-maximal effect (EC50) under setting [1] is 27 µM.

With `CC(C)c1c(Cn2nnc3ccccc32)cc(=O)n2c1SC[C@H]2C(=O)[O-].[Li+]`, the concentration for a half-maximal effect (EC50) entry is given as “Not Active”.

On to `O=C([O-])[C@@H]1CSc2c(-c3cccnc3)c(Cn3nnc4ccccc43)cc(=O)n21.[Li+]`, for which the EC50 result was “Not Active”.

As to `Cn1cc(-c2c(COc3cccc4ccccc34)c(CN3CCOCC3)c(=O)n3c2SC[C@H]3C(=O)O)c2ccccc21`, the EC50 under setting [1] was 18 µM.

With `O=C([O-])[C@@H]1CSc2c(C3CC3)c(Cn3nnc4ccccc43)cc(=O)n21.[Li+]`, the EC50 result is listed as “Not Active”.
